Measured values taken from article PMC3827994, “Novel preclinical models of topical PrEP pharmacodynamics provide rationale for combination of drugs with complementary properties” (Retrovirology, 2013).
Structures can show the parent of a compound that is named as a salt.

Experiments:
[1] = tested on: HIV-1Ba-L; experiment: JT-CCR5 cells challenged with HIV-1Ba-L in the presence of drug (p24 ELISA); format: cell-based
Method: (§1) JT-CCR5 T cells in 24-well plates (1×10^6 cells/well) were exposed to varying concentrations of drugs diluted in complete medium for 24 h. The cells were then washed with 10 mL of medium, medium containing 10% human seminal plasma (SP), or not washed and then washed cells were resuspended in complete medium prior to transfer to round-bottomed 96-well plates and exposed to 10^3 TCID50 (50% tissue culture infective dose) HIV-1Ba-L for 2 h. Plates were centrifuged at 500 g for 5 min and supernatants were removed prior to each of 3 washing steps with 200 μL of medium. Cells were subsequently cultured in 200 μL complete medium and HIV replication was assessed 6 d post-infection by measuring p24 antigen by ELISA [34].

[2] = tested on: HIV-1Ba-L; experiment: Co-culture model: drug-exposed human ectocervical explants washed, minced, co-cultured with JT-CCR5 cells, HIV-1Ba-L challenge; format: cell-based
Method: (§2) Cervical tissue was collected from pre-menopausal women undergoing therapeutic hysterectomies at the Albert Einstein–Montefiore Weiler Hospital (Bronx, NY, USA) under an IRB exempt protocol. Ectocervical tissue was cut into explants of approximately 3×3×3 mm prior to 24 h exposure to panel of unformulated drugs in 24-well plates. Extracellular free drug was removed by immersing explants in phosphate buffered saline (PBS) containing Ca^2+ before mincing explants into fragments smaller than 1 mm, which were resuspended in 200 μL complete medium and co-cultured with JT-CCR5 cells (1×10^5 cells/well) in triplicate wells of round-bottomed 96-well plates. Co-cultures were incubated at 37°C for 72 h to allow released drug to be transferred from the tissue to T cells prior to challenge with HIV-1Ba-L (approximately 10^3 TCID50). The inoculum was removed and co-cultured tissue and cells washed thrice with medium. HIV replication was assessed by measuring p24 levels by ELISA (Figure 2a).

[3] = tested on: HIV-1Ba-L; experiment: Intracellular drug retention: JT-CCR5 cells exposed to drug 24 h, washed with medium or 10% seminal plasma, then HIV-1Ba-L challenge; format: cell-based; details: for protection of washed cells at the highest concentrations tested: 10 and 100 μM, cells washed with medium or SP; for antiviral activity after washing cells with medium or SP prior to challenge: JT-CCR5, 24 h drug exposure, TDF at >= 0.1 μM
Method: as §1

[4] = tested on: HIV-1Ba-L; experiment: NHP cervical biopsies co-cultured with PHA-activated human PBMC, HIV-1Ba-L challenge (p24 ELISA); format: cell-based
Method: as §2
Proximal and distal biopsies were collected and placed in 200 μL of complete medium and shipped to the Herold laboratory at 4°C. Biopsies were minced without washing and co-cultured with activated human PBMC in the presence of culture medium used during transport. Challenge and assessment of HIV replication were performed as described for human cervical explant tissue (Figure 2a).

[5] = pig, in vivo
Method: A 14-day IQP-0528 IVR biodistribution study using pigtail macaque monkeys was performed following protocols approved by the CDC Institutional Animal Care and Use Committee according to the Guide for the Care and Use of Laboratory Animals as previously described [36]. Briefly, animals were anesthetized with ketamine (3-10 mg/kg) prior to all collection procedures. A total of six macaques were used with two animals receiving placebo IVR and four animals receiving IQP-0528 (10% w/w) IVR. A pediatric speculum and forceps were used to insert IVRs in the posterior vagina proximal to the ectocervix on day 0 and left in place for 14 days. Tissue samples were collected with biopsy forceps (Miltex Townsend # 30–1445) near the vaginal introitus (distal to the ring) and the ectocervix (proximal to the ring) and shipped at 4°C to the Herold laboratory overnight. CVL samples were obtained by washing the vaginal vault with 5 mL normal saline; CVL samples were divided into aliquots, shipped and stored at -80°C.
IQP-0528 in biological samples was extracted and analyzed using LC-MS/MS at the Center for Human Toxicology (Utah). The lower limit of quantification (LLOQ) for this assay was 1 ng/mL of matrix. To convert weight/weight concentrations of IQP-0528 (nanograms IQP-0528 per milligram of vaginal fluid or tissue) to molarity (μM), vaginal fluid and tissue densities of 1.0 g/mL were assumed.

[6] = tested on: TZM-bl cells; experiment: In vitro activity of IQP-0528 in TZM-bl cells; format: cell-based; details: not shown
[7] = tested on: HIV-1Ba-L; experiment: Antiviral activity of macaque CVL in TZM-bl cells challenged with HIV-1Ba-L (luciferase); format: cell-based; details: CVL diluted 1:10 and 1:100, Days 7 and 14 post IVR insertion
Method: TZM-bl cells were plated at 3x10^4/well and allowed to adhere overnight before exposure to 10^3 TCID50 HIV-1Ba-L in the presence of CVL diluted 1:10 and 1:100 in complete DMEM in triplicate wells. Virus and drugs were left in culture for 48 h at 37°C and then removed by washing once with 200 μl PBS. Cells were lysed in 100 μl luciferase cell culture lysis reagent (Promega) and stored at -80°C until assessed for luciferase activity using luciferase assay buffer (Promega). Alternatively, TZM-bl cells were plated at 5x10^3/well in polyester transwell™ inserts with 1.0 μm pore size (Corning) and exposed basolaterally to CVL diluted 1:20 in complete DMEM overnight before apical challenge with the CCR5-tropic subtype C HIV isolate 97USNG30 (0, 10 and 100 TCID50). Wells with luciferase activity above background average + 2 standard deviations (cells exposed to CVL but no virus) were considered positive. To avoid contamination, frozen CVL was Gamma-irradiated on dry ice (1KGy) prior to use.

[8] = tested on: HIV-1Ba-L; experiment: Parallel antiviral experiments with MVC in human PBMCs; format: cell-based; details: PHA-activated PBMCs; data not shown
[9] = tested on: HIV; design: method as in PMID 16251317; details: drug present throughout the experiment ref 25; cited from earlier work
[10] = Human immunodeficiency virus 1, 144 h; challenge in the presence of drug; means ± SEM; read-out: JT-CCR5 Infection IC50
[11] = Human immunodeficiency virus 1, 144 h; challenge in the presence of drug; means ± SEM; read-out: JT-CCR5 Infection IC90
[12] = Human immunodeficiency virus 1; drug concentration during 24 h explant exposure; means ± SEM; read-out: Co-culture JT-CCR5 & explant tissue IC50
[13] = Human immunodeficiency virus 1; drug concentration during 24 h explant exposure; means ± SEM; read-out: Co-culture JT-CCR5 & explant tissue IC90
[14] = explant treated ex vivo, washed, co-cultured with JT-CCR5
[15] = macaques with 10% w/w IQP-0528 IVR, co-culture with human PBMC

Cc1cc(C)c(Nc2ccnc(Nc3ccc(C#N)cc3)n2)c(C)c1 [DPV, Dapivirine]
IC50 [1, 10]: 10 ± 10 nM | IC90 [1, 11]: 30 ± 20 nM | IC50 [2, 12]: 400 ± 200 nM | IC90 [2, 13]: 1100 ± 300 nM | protection of co-cultured T cells by pretreated explant tissue [2, 14]: significant protection | HIV inhibition ([3]; 1 μM, cells washed with SP prior to HIV challenge): failed to inhibit HIV infection | inhibition at 1 µM ([3]; Human immunodeficiency virus 1, 1 μM, cells washed with medium alone, mean ± SEM, read-out: protection (HIV inhibition)): 73.9 ± 13.8%

Cc1cc(C)cc(C(=O)c2c(C(C)C)c(=O)[nH]c(=O)n2CC2CC2)c1 [IQP-0528]
viral inhibition, distal biopsies, day 7 [4, 15]: 42.3% | viral inhibition, distal biopsies, day 14 [4, 15]: 59.2% | viral inhibition, proximal biopsies, day 7 [4, 15]: 53.0% | viral inhibition, proximal biopsies, day 14 [4, 15]: 71.7% | viral inhibition, biopsies of ring-treated macaques (range) ([4]; proximal and distal biopsies, days 7 and 14): 42-72% | IC50 ([1]; challenge in the presence of drug; means ± SEM; read-out: JT-CCR5 Infection IC50): 190 ± 70 nM | IC90 ([1]; challenge in the presence of drug; means ± SEM; read-out: JT-CCR5 Infection IC90): 430 ± 160 nM | IQP-0528 concentration in CVL, D7, Mean ± SEM [5]: 1360 ± 249 µg/mL | IQP-0528 concentration in CVL, D14, Mean ± SEM [5]: 940 ± 250 µg/mL | IQP-0528 concentration in cervical tissue, Distal D7, Mean ± SEM [5]: 0.85 ± 0.23 ng/mg of tissue | IQP-0528 concentration in cervical tissue, Distal D14, Mean ± SEM [5]: 14.65 ± 6.35 ng/mg of tissue | IQP-0528 concentration in cervical tissue, Proximal D7, Mean ± SEM [5]: 3.36 ± 1.36 ng/mg of tissue | IQP-0528 concentration in cervical tissue, Proximal D14, Mean ± SEM [5]: 28.08 ± 5.39 ng/mg of tissue | IC50 ([2]; drug concentration during 24 h explant exposure; means ± SEM; read-out: Co-culture JT-CCR5 & explant tissue IC50): 2900 ± 700 nM | IC90 ([2]; drug concentration during 24 h explant exposure; means ± SEM; read-out: Co-culture JT-CCR5 & explant tissue IC90): 10100 ± 700 nM | protection of co-cultured T cells by pretreated explant tissue [2, 14]: significant protection | protection in co-culture, fresh tissue vs tissue stored at -80°C ([2]; tissue fresh or frozen 24 h or 7 days after drug treatment): protective under all of these conditions | in vitro IC90 in TZM-bl cells [6]: 2.7 ng/mL | protection of washed cells at the highest concentrations tested [3]: neither IQP-0528 or MVC completely protected the cells from infection | protection of TZM-bl cells challenged in the presence of CVL [7]: significantly protected from infection

CC(C)OC(=O)OCOP(=O)(CO[C@H](C)Cn1cnc2c(N)ncnc21)OCOC(=O)OC(C)C [TDF, Tenofovir disoproxil fumarate]
IC50 [1, 10]: 40 ± 10 nM | IC90 [1, 11]: 130 ± 20 nM | IC50 [2, 12]: > 10000 nM | IC90 [2, 13]: > 10000 nM | protection of co-cultured T cells by pretreated explant tissue [2, 14]: not protected from viral infection | antiviral activity after washing cells with medium or SP prior to challenge [3]: retained its antiviral activity

Maraviroc [MVC]
antiviral activity ([1]; cells washed 2 h after viral inoculation, drug not re-added): only active in the low μM range | IC50 ([1]; read-out: JT-CCR5 Infection IC50; challenge in the presence of drug; means ± SEM): 1980 ± 850 nM | IC90 ([1]; read-out: JT-CCR5 Infection IC90; challenge in the presence of drug; means ± SEM): 54500 ± 13800 nM | protection of co-cultured T cells by pretreated explant tissue [2, 14]: failed to protect co-cultured T cells | IC50 ([2]; read-out: Co-culture JT-CCR5 & explant tissue IC50; drug concentration during 24 h explant exposure; means ± SEM): > 100000 nM | IC90 ([2]; read-out: Co-culture JT-CCR5 & explant tissue IC90; drug concentration during 24 h explant exposure; means ± SEM): > 100000 nM | antiviral activity in human PBMCs compared to JT-CCR5 cells [8]: no difference in the antiviral activity | protection of washed cells at the highest concentrations tested [3]: neither IQP-0528 or MVC completely protected the cells from infection | antiviral activity after washing cells with medium or SP prior to challenge [3]: significantly reduced | antiviral activity [9]: low nanomolar range
